Laboratory results reported in patent US20240139199A1, “USE OF ADENINE IN PREPARATION OF DRUG FOR TREATING DIABETIC ULCERS” (Energenesis Biomedical Co., Ltd., priority 2021, published 2024).

Key:
fibroblast = fibroblast growth inhibition (stated finding, no method given); format: cell-based
COX-2 = COX-2 protein expression (stated finding, no method given); format: cell-based
diabetic ulcers = assay: double arm, double-blind study of adenine gel in subjects with diabetic ulcers (wound healing); format: in vivo, human
Description: The efficacy of adenine and/or a pharmaceutically acceptable salt thereof as a therapeutic agent for diabetic ulcers was evaluated through a double arm, double-blind study as disclosed in the present disclosure. The groups consist of a 0.02% adenine gel group and a placebo group. The basic information of the subjects is shown in Table 1, while the analysis of wound healing rates based on the Wagner-[…] ulcer classification system and initial wound area size is presented in Tables 2 to 4 below, respectively. Similarly, in a double arm, double-blind study as described in Example 1, the present disclosure evaluated the effects of the disclosed adenine and/or a pharmaceutically acceptable salt thereof as a medicament for treating the diabetic ulcers.

Nc1ncnc2nc[nH]c12 [adenine]
fibroblast growth (fibroblast): inhibit fibroblast growth
protein expression of COX-2 (COX-2): reduce protein expression of COX-2
wound healing effect (in words) (diabetic ulcers; Grade 1 and/or Grade 2 ulcers, or wound area 1.5 to 25 square centimeters): remarkably superior effects in accelerating and enhancing wound healing
scar formation (diabetic ulcers; directly administered to ulcer wounds in diabetic patients): scar formation is reduced
onset of wound healing (in words) (diabetic ulcers; results from Table 5): rapid and effective healing starting from the fourth week
